Experiments:
[1] = system: MDA-MB-231 cells; assay: Cell uptake of DOX@HAuNS and DOX@PEG-HAuNS (fluorescence and dark-field microscopy); type: cell-based, human; conditions: without NIR laser; 1 h to 48 h incubation
Procedure: MDA-MB-231 cells were transferred and cultured onto 20-mm glass cover slips in a 24-well plate and allowed to grow for 2 days. Then the medium was replaced with 1 mL of fresh culture medium containing free DOX, DOX@HAuNS, or DOX@PEG-HAuNS. After incubation for 1 hr or 48 h, the cell monolayer on the cover slip was removed, repeatedly rinsed with PBS, and then mounted for microscopic examination. The cellular fluorescence and dark-field light scattering images were examined under a Zeiss Axio Observer.Z1 fluorescence microscope (Carl Zeiss MicroImaging GmbH, USA) equipped with a dark-field condenser.
In a separated experiment, MDA-MB-231 cells cultured on 20-mm glass cover slips were irradiated with NIR laser (1.0 W/cm^2 for 3 min per treatment, 4 treatments in 2 h). Cell nuclei were stained with DAPI. The cellular fluorescence and light scattering images were obtained as described in the preceding paragraph.

[2] = system: MDA-MB-231 cells; assay: Cytotoxicity of DOX-HAuNS and DOX-PEG-HAuNS (MTT); type: cell-based, human; conditions: equivalent DOX concentration 10 μg/mL, no NIR
Procedure: A total of 2.0×10^4 cells were plated in 96-well plates and incubated for 24 h to allow the cells to attach. The cells were exposed to free DOX, DOX@HAuNS, or DOX@PEG-HAuNS with various DOX concentrations. The cells were or were not irradiated with NIR laser at an output power of 2 W/cm^2 (3 min per treatment, 4 treatments in 2 h). Then the cells were incubated at 37° C. for a further 48 h. […] The data reported represented the means of triplicate measurements. In a separate experiment, the cells were exposed to HAuNS with various Au concentrations and then were or were not irradiated with NIR laser under the same conditions. Cell survival efficiency was measured after the incubation at 37° C. for 48 h.

SMILES: COc1cccc2c1C(=O)c1c(O)c3c(c(O)c1C2=O)C[C@@](O)(C(=O)CO)C[C@@H]3O[C@H]1C[C@H](N)[C@H](O)[C@H](C)O1 [free DOX, doxorubicin]
- cellular uptake and intracellular distribution [1]: taken up by the tumor cells and distributed to cell nuclei
- cells killed [2]: 77.4%
